From PubChem BioAssay AID2610 (Broad Institute, 2010)
Inconclusive results are not listed. Active and inactive are the calls of the source.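 The calls were made as follows: active = EC50 no more than tenfold above the top concentration tested, with valid fit and all samples agreeing; inconclusive = flat fit at 30 to 70% inhibition, poor fit, or split samples; inactive = EC50 beyond tenfold the top concentration tested.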

Tested on: BJeLR fibroblast viability, Alamar Blue fluorescence, 48 h
Assay: cytotoxicity toward RAS-transformed BJeLR fibroblasts, dose response, cell-based, alamar blue fluorescence, 48 h, cherrypicked samples (AID 2610);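 also: BJ fibroblasts with hTERT plus SV40 large and small T and HRAS V12; EC50 for loss of viable cells so potency reflects cytotoxic compounds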

SMILES	EC50
O=S(=O)(c1ccc(Cl)cc1)c1snnc1-c1ccccc1	594 nM
CCCN1C=CC(=C2C(=O)c3ccccc3C2=O)C=C1	> 13300 nM (inactive)
CCN(CC)C(=O)c1ccc(NC(=O)Nc2ccccc2F)cc1	> 13300 nM (inactive)
Nc1nc(CCl)nc(Nc2ccc3ccccc3c2)n1	192 nM
CCn1cc(C(=O)NCc2ccco2)c(=O)c2cc(S(=O)(=O)N3CC(C)CC(C)C3)ccc21 (stereo not drawn)	> 13300 nM (inactive)
COc1ccc(/C=N\NC(=O)c2cccc(F)c2)cc1COc1ccccc1	< 104 nM
COc1ccc(C(C(=O)NC2CCCCC2)N(C(=O)CCl)c2ccc(C)cc2)cc1 (stereo not drawn)	454 nM
CCCCOc1ccc(Br)cc1/C(C)=N/NC1=NCCN1	585 nM
CC(C)Oc1ccccc1C1CC(=O)Nc2cc3c(cc21)OCCO3 (stereo not drawn)	307 nM
COc1cc(SC)ccc1C(=O)Nc1nc2ccccc2[nH]1	> 13300 nM (inactive)
CC1CC(C)CN(S(=O)(=O)c2ccc(C(=O)NCCCn3ccnc3)cc2)C1 (stereo not drawn)	150 nM
O=C(N/N=C(\c1ccccc1)c1cccnc1)c1cccc(F)c1	697 nM
O=Cc1cc2ccccc2nc1SCc1ccc(Cl)c(Cl)c1	< 104 nM
COc1cc(/C=C/c2ccc3cccc(O)c3n2)cc(OC)c1OC	3370 nM
Cc1ccc(/C=C2\SC(=S)N(CCCC(=O)N3CCOCC3)C2=O)cc1	3580 nM
O=[N+]([O-])c1cc(Br)c(Nc2ccccc2)c([N+](=O)[O-])c1	537 nM
FC(F)(F)c1nnc2c(Sc3ccccc3)nc3ccc(Cl)cc3n12	577 nM
Cc1nc(N)nc(N)c1/C=C/C(C)(C)c1ccc(Cl)cc1	> 13300 nM (inactive)
N#Cc1c(NC(=O)/C=C/c2ccco2)sc2c1CCCC2	< 104 nM
CC1C/C(=C/c2ccncc2)C(=O)/C(=C/c2ccncc2)C1 (stereo not drawn)	400 nM
CCCCCCCCCC[n+]1cccc2c3ccccc3ccc21	8030 nM
CC(=O)c1ccc(NC(=O)N2CCc3ccccc3C2)cc1	> 13300 nM (inactive)

SMILES	EC50
CC(=O)Nc1ccc(NC(=O)CN(c2cccc([N+](=O)[O-])c2)S(C)(=O)=O)cc1	1410 nM
O=C(CCl)N=c1sccn1Cc1ccccc1Cl	< 88.2 nM
CCOc1ccccc1C(=O)N1CCN(c2cccc(Cl)c2)CC1	< 104 nM
COc1ccc(/C=C2\CN(Cc3ccccc3)C/C(=C\c3ccc(OC)c(O)c3)C2=O)cc1O	559 nM
c1ccc(-c2noc(-c3ccc4c(c3)OCO4)n2)nc1	> 13300 nM (inactive)
CC1CN(S(=O)(=O)c2ccc(C(=O)NCCCn3ccnc3)cc2)CC(C)O1 (stereo not drawn)	436 nM
CCOc1ccc(Nc2nc(N)nc(CCl)n2)cc1	391 nM
COc1ccc2c(C)nc(Nc3nc(-c4ccccc4)cc(=O)[nH]3)nc2c1	1200 nM
CCOc1ccc(C2=Nn3c(nnc3-c3ccccc3OC)SC2)cc1	< 104 nM
Oc1ccccc1N=Nc1nc(-c2ccccc2)c(-c2ccccc2)[nH]1	176 nM
O=c1c2ccccc2cnn1-c1nc2ccccc2[nH]1	> 13300 nM (inactive)
COc1ccc(NC(=O)CN(C)S(=O)(=O)c2ccc3[nH]c(=O)oc3c2)cc1	> 13300 nM (inactive)
O=C(NCc1cccnc1)c1ccc(-c2cc3ccccc3oc2=O)cc1	1340 nM
COc1ccc(NC(=O)C(=O)NCC2CCCN2S(=O)(=O)c2ccc(C)cc2)cc1 (stereo not drawn)	< 104 nM
CC1CCCN(c2ccc([N+](=O)[O-])cc2C(=O)c2ccccc2)C1 (stereo not drawn)	< 104 nM
CC[C@@]1(O)C(=O)OCc2c1cc1n(c2=O)Cc2cc3c(N)cccc3nc2-1	< 30.7 nM
CNC1=C(N(C(C)=O)c2ccc(Br)cc2)C(=O)c2ccccc2C1=O	1350 nM
C/C(=N\Nc1ncnc2sc(C)c(C)c12)c1ccccn1	< 104 nM
COc1ccccc1N1CCN(C(=O)c2cc(=O)c3cc(C)cc(C)c3o2)CC1	< 104 nM
CCOC(=O)c1[nH]c(C)c(C(=O)N2CCc3ccccc32)c1C	< 104 nM
O=C(N/N=C/c1cc2c3c(c1O)CCCN3CCC2)c1ccccc1O	755 nM
CCOC(=O)C1CCN(S(=O)(=O)c2c(Cl)ccc3nonc23)CC1	407 nM

SMILES	EC50
COC(=O)c1cccc(Nc2c3c(nc4ccccc24)CCC3)c1	2600 nM
CCSc1cc(C2C(C#N)=C(N)Oc3n[nH]c(C)c32)c(C)o1 (stereo not drawn)	11500 nM
Cc1cc2nc(/C=C/c3cccnc3)[nH]c2cc1C	< 104 nM
Cc1sc2cc3c(c(C(=O)c4ccccc4)[n+]2c1C)-c1cccc2cccc-3c12	10500 nM
Oc1c(N=Nc2ccccn2)ccc2ccccc12	241 nM
O=C(Sc1cccc2cccnc12)c1ccccc1Br	337 nM
C=C1C(=O)O[C@@H]2C[C@@H](C)[C@@H]3C=CC(=O)[C@@]3(C)[C@@H](OC(=O)CC(=O)O[C@H]3[C@@H]4C(=C)C(=O)O[C@@H]4C[C@@H](C)[C@@H]4C=CC(=O)[C@]43C)[C@H]12	< 41.7 nM
Cc1nn(-c2ccccc2)c(Cl)c1CN(C(=O)CCl)c1ccc(Cl)cc1	521 nM
COC(=O)C1=C(C)N(Cc2ccccc2)C(=NCc2cccc(C(F)(F)F)c2)N[C@H]1c1cccc(F)c1	> 13300 nM (inactive)
COc1ccc(C(=O)Nc2nc3ccccc3s2)c(OC)c1	> 13300 nM (inactive)
Cc1cccc(NS(=O)(=O)c2ccc(-c3cnc(C4CC4)o3)cc2)c1C	< 104 nM
O=C(c1ccc2c3n(nc2c1)-c1ccccc1CO3)N1CCCCC1	> 13300 nM (inactive)
CCCC(=O)Nc1ccc(C(=O)N/N=C/c2ccc([N+](=O)[O-])o2)cc1	< 48.8 nM
N#CC1=C(N)Oc2cc(N)ccc2C1c1cccc(Br)c1 (stereo not drawn)	318 nM
Nc1nc(CCl)nc(Nc2cccc3ccccc23)n1	493 nM
CC(C)c1onc(C(=O)N2CCN(C(c3ccccc3)c3ccccc3)CC2)c1[N+](=O)[O-]	522 nM
CCc1ccc(NC(=O)[C@H](Cc2c[nH]c3ccccc23)NC(=O)[C@@H]2Cc3ccccc3CN2)cc1	> 13300 nM (inactive)
S=c1nc[nH]c2nc[nH]c12	> 13300 nM (inactive)
CCOCCOC(=O)c1[nH]c2c(c1C)C(=O)CC(c1ccccc1)C2 (stereo not drawn)	262 nM
CC(=O)c1ccc(Oc2cc(C)nc(-n3nc(C)cc3C)n2)cc1	< 104 nM
C/C(=N\Nc1ccc2nncn2n1)c1ccccn1	1140 nM
CSc1cc(-c2ccccc2)n(Cc2ccccc2Cl)c(=O)c1C#N	709 nM

SMILES	EC50
COc1ccc2[nH]c3c(NCCC4=CCCCC4)ncnc3c2c1	> 13300 nM (inactive)
O=c1c2ccccc2nc(/C=C/c2ccc([N+](=O)[O-])o2)n1-c1ccc(O)cc1	3660 nM
CC1=CC(=O)C=C(C)C1=NOS(=O)(=O)c1ccccc1	3010 nM
O=C(Nc1nc2ccccc2[nH]1)c1ccccc1F	> 13300 nM (inactive)
Clc1ccccc1Nc1nnc(-c2ccncc2)s1	> 13300 nM (inactive)
O=[N+]([O-])c1ccc(N=Nc2ncc[nH]2)cc1	2370 nM
O=C(CCl)N(CCCNC(=O)C(F)(F)F)c1ccc([N+](=O)[O-])cc1	424 nM
Nc1nc(F)nc2c1ncn2[C@@H]1O[C@H](CO)[C@@H](O)[C@H]1O	151 nM
C=C1C(=O)O[C@@H]2C[C@@H](C)[C@H]3C=CC(=O)[C@]3(O)C[C@@H]12	4550 nM
Cc1nc(N)nc(N)c1CCCc1ccc(Cl)c(Cl)c1	> 13300 nM (inactive)
CC[C@@]1(O)C(=O)OCc2c1cc1n(c2=O)Cc2cc3ccccc3nc2-1	< 30.4 nM
COc1ccccc1C1C2=C(COC2=O)Nc2cc3c(cc21)OCO3 (stereo not drawn)	< 104 nM
COc1ccc(S(=O)(=O)N2CCOCC2)cc1NC(=O)CCNC(=O)c1ccc(Br)cc1	440 nM
C=C1C(=O)C=C2CN(C(=O)c3ccccc3)[C@@](Cc3ccc(F)cc3)(C(=O)OC)[C@@H]12	140 nM
Cc1ccc(Nc2nc(N)nc(CCl)n2)c(C)c1	388 nM
COc1ccc(-c2coc3cc4oc(=O)c5ccccc5c4cc23)cc1F	< 104 nM
COc1cc(OC)c(C2=NOC(C(=O)NCc3cccs3)C2)cc1Cl (stereo not drawn)	2320 nM
Cc1ccc(C2=NN(C(=O)CCl)C(c3ccco3)C2)o1 (stereo not drawn)	1600 nM
COc1cc([C@@H]2c3cc4c(cc3[C@@H](NC3CCN(Cc5ccccc5)CC3)[C@H]3COC(=O)[C@H]23)OCO4)cc(OC)c1O	133 nM
COc1ccc(/C=C/c2cc(-c3ccc(C)cc3)o[n+]2C)cc1	654 nM
O=C(CCl)Nc1cc(SCC(O)CO)cc([N+](=O)[O-])c1 (stereo not drawn)	997 nM
COc1cccc(NC(=O)n2ncc3c(C)cccc32)c1	> 13300 nM (inactive)

SMILES	EC50
CCCCCN=Cc1c(C)[nH]n(-c2nc3ccccc3s2)c1=O	> 13300 nM (inactive)
COc1ccc(-c2cc3nc(C)cc(N)n3n2)cc1	> 13300 nM (inactive)
O=C(/C=C/c1ccc(F)cc1)NNC(=O)CCN1CCN(Cc2ccccc2)CC1	> 13300 nM (inactive)
COc1cc2c(c(OC)c1OC)-c1ccc(O)c(=O)cc1C(NC(C)=O)CC2 (stereo not drawn)	< 104 nM
Cc1occc1C(=O)N/N=C/c1ccc(-c2ccccc2)cc1	> 13300 nM (inactive)
COc1cc(C2c3cc4c(cc3C(OC3OC5COC(c6cccs6)OC5C(O)C3O)C3COC(=O)C23)OCO4)cc(OC)c1O (stereo not drawn)	129 nM
CCN(CC)CCCNC(=O)c1cc(-c2ccccc2)c(N2CCCCC2)s1	> 13300 nM (inactive)
O=C(COc1ccc([N+](=O)[O-])cc1)Nc1ccc(C(=O)NCc2cccnc2)cc1	> 13300 nM (inactive)
Cc1ccc(C2CC(c3cccs3)=NN2C(=O)CCl)cc1 (stereo not drawn)	727 nM
CCC(C)C(=O)OCC1(c2ccc(C)cc2OC(=O)C(C)C)CO1 (stereo not drawn)	> 13300 nM (inactive)
COc1ccc2nc(C)cc(N/N=C/c3ccc(F)cc3)c2c1	292 nM
CC(C)c1cc(C(=O)N/N=C/C(Br)=C/c2ccccc2)n[nH]1	958 nM
O=C(CSc1ccccn1)NCc1ccc2c(c1)OCO2	> 13300 nM (inactive)
COc1cccc(CSc2nc3ccccc3cc2C=O)c1	111 nM
CCOC(=O)/C(=C\c1cccnc1)C(=O)c1cc(C(C)=O)c(Nc2ccccc2)s1	575 nM
COc1ccc(COC(=O)c2cc([N+](=O)[O-])ccc2N2CCOCC2)cc1F	< 104 nM
C/C(=N\NC(=O)c1ccccc1F)c1ccccn1	4140 nM
COc1ccc(OC)c2c1C(=O)C(Cl)=C(Cl)C2=O	2980 nM
COc1ccc(N2C(=O)/C(=C/c3ccc(C)o3)C(=O)NC2=S)cc1	> 13300 nM (inactive)
COC(=O)c1[nH]c2c(c1C)C(=O)CC(c1cccs1)C2 (stereo not drawn)	152 nM
